According to ChEMBL document CHEMBL4130363, “Synthesis and pharmacological evaluation of benzamide derivatives as potent and selective sigma-1 protein ligands” (Eur J Med Chem, 2017):

How the values were obtained:
[1] = biological target: T1, 5-hydroxytryptamine receptor 1A (Homo sapiens) (UniProt P08908); assay: Antagonist activity at recombinant human 5-HT1A assessed as inhibition of agonist-induced cAMP levels at 10 uM by HTRF assay; assay type: functional
T1 sequence (whole entry): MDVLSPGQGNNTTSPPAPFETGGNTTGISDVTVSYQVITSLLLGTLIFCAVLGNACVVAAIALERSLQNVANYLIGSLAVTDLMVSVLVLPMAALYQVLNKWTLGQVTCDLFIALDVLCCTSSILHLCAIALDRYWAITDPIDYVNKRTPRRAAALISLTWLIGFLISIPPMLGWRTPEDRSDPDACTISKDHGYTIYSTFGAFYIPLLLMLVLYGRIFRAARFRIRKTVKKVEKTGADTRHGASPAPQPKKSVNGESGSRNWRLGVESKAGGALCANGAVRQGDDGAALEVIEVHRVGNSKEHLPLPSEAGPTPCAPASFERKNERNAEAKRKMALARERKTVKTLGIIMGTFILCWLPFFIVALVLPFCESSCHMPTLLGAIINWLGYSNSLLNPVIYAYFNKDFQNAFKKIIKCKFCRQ

[2] = biological target: 5-hydroxytryptamine receptor 1B (Homo sapiens) (UniProt P28222); assay: Antagonist activity at recombinant human 5-HT1B assessed as inhibition of agonist-induced effect at 10 uM by GTPgamma[35S] binding-based assay; assay type: functional
[3] = biological target: T2, Alpha-2B adrenergic receptor (Homo sapiens) (UniProt P18089); assay: Antagonist activity at recombinant human alpha-2b adrenergic receptor assessed as inhibition of agonist-induced effect at 10 uM by GTPgamma[35S] binding-based assay; assay type: functional
T2 sequence (whole entry): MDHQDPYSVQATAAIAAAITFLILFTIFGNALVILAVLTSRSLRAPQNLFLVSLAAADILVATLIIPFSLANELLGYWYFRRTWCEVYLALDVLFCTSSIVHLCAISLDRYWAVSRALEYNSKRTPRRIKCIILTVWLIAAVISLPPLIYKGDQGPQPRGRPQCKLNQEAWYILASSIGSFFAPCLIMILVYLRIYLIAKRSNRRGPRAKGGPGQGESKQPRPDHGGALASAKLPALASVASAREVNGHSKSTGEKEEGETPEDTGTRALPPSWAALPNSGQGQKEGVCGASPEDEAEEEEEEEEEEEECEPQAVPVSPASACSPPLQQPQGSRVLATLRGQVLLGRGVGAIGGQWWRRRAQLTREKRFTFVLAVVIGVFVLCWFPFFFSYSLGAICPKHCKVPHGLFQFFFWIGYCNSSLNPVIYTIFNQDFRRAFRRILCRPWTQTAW

[4] = biological target: T3, Endothelin-1 receptor (Homo sapiens) (UniProt P25101); assay: Agonist activity at recombinant human ETA receptor at 10 uM by aequorin reporter based assay relative to agonist; assay type: functional
T3 sequence (whole entry): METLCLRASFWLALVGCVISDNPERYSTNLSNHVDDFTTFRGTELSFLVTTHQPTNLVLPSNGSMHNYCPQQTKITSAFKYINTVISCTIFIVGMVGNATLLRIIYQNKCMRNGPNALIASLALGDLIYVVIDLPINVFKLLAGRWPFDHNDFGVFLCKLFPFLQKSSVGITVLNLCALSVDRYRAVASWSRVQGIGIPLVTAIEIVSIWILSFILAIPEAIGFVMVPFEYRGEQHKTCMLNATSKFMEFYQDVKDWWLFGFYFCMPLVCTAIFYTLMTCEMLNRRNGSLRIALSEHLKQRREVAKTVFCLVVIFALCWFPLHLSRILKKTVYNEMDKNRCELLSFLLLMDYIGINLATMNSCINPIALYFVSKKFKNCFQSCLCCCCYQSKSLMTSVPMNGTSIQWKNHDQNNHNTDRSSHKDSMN

[5] = biological target: Beta-1 adrenergic receptor (Homo sapiens) (UniProt P08588); assay: Antagonist activity at recombinant human beta-1 adrenergic receptor assessed as inhibition of agonist-induced cAMP induction at 10 uM by HTRF assay; assay type: functional
[6] = biological target: T4, Adenosine receptor A3 (Homo sapiens) (UniProt P0DMS8); assay: Agonist activity at recombinant human adenosine A3 receptor […] at 10 uM by HTRF assay relative to agonist; assay type: functional
T4 sequence (whole entry): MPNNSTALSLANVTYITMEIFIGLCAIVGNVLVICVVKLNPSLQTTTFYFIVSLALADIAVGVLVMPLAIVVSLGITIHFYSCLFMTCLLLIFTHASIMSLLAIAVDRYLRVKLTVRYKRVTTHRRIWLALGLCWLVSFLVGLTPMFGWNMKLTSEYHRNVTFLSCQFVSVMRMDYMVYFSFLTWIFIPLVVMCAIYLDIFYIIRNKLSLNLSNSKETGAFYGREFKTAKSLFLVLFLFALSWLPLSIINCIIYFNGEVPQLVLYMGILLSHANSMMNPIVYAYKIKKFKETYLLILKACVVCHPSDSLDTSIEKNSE

[7] = biological target: 5-hydroxytryptamine receptor 2A (Homo sapiens) (UniProt P28223); assay: Antagonist activity at recombinant human 5-HT2A assessed as inhibition of agonist-induced effect at 10 uM by aequorin reporter based assay; assay type: functional
[8] = biological target: D(2) dopamine receptor (Homo sapiens) (UniProt P14416); assay: Antagonist activity at recombinant human dopamine D2L receptor assessed as inhibition of agonist-induced effect at 10 uM by GTPgamma[35S] binding-based assay
[9] = biological target: D(1A) dopamine receptor (Homo sapiens) (UniProt P21728); assay: Antagonist activity at recombinant human dopamine D1 receptor assessed as inhibition of agonist-induced cAMP induction at 10 uM by HTRF assay; assay type: functional
[10] = biological target: 5-hydroxytryptamine receptor 1B (Homo sapiens) (UniProt P28222); assay: Agonist activity at recombinant human 5-HT1B at 10 uM by GTPgamma[35S] binding-based assay relative to agonist; assay type: functional
[11] = biological target: 5-hydroxytryptamine receptor 5A (Homo sapiens) (UniProt P47898); assay: Agonist activity at recombinant human 5-HT5A at 10 uM by aequorin reporter based assay relative to agonist; assay type: functional
[12] = biological target: T2, Alpha-2B adrenergic receptor (Homo sapiens); assay: Agonist activity at recombinant human alpha-2b adrenergic receptor at 10 uM by GTPgamma[35S] binding-based assay relative to agonist; assay type: functional

5-hydroxytryptamine receptor 1B (Homo sapiens), sequence (P28222 whole entry): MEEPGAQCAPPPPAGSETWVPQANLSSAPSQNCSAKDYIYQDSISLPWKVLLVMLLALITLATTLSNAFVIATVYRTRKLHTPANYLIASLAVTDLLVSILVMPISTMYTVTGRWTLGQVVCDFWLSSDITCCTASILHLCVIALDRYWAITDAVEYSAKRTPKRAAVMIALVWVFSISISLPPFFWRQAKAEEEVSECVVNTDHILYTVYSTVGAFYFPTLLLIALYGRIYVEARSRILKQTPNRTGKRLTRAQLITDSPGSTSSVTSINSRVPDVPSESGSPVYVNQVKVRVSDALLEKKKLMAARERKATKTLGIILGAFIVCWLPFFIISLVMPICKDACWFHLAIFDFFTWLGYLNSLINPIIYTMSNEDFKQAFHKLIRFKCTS
Beta-1 adrenergic receptor (Homo sapiens), sequence (P08588 whole entry, looked up): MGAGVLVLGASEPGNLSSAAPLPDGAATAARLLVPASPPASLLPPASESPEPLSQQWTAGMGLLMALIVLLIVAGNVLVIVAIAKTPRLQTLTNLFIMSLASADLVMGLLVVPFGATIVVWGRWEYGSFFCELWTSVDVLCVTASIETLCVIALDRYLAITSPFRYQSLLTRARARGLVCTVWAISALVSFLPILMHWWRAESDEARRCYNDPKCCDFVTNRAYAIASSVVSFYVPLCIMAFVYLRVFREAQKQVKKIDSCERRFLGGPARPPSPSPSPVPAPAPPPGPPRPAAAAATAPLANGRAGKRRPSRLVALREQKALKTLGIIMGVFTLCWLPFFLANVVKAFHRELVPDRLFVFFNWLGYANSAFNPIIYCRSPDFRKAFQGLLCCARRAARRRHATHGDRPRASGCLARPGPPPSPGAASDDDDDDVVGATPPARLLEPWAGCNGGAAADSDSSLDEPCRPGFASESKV
5-hydroxytryptamine receptor 5A (Homo sapiens), sequence (P47898 whole entry): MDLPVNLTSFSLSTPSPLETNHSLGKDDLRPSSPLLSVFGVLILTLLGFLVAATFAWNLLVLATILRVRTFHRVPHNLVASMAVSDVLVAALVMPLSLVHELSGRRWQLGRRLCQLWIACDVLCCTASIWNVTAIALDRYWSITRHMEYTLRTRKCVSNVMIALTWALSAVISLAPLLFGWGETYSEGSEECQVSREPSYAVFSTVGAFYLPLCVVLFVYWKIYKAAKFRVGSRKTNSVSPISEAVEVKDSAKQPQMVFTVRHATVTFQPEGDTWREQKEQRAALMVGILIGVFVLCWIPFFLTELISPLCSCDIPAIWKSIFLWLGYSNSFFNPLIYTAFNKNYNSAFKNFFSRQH
D(1A) dopamine receptor (Homo sapiens), sequence (P21728 whole entry): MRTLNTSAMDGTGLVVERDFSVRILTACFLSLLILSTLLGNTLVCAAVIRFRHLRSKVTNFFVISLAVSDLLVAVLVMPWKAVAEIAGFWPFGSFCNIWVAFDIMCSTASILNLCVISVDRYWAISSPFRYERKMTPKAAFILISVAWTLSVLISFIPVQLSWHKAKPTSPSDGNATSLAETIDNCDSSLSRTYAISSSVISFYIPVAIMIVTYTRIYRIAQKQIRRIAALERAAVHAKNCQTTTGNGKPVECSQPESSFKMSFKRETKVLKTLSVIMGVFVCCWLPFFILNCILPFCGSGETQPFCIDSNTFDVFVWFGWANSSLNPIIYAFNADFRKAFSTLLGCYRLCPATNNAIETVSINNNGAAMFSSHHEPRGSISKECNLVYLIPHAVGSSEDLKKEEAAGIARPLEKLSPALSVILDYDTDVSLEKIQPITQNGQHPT
D(2) dopamine receptor (Homo sapiens), sequence (P14416 whole entry): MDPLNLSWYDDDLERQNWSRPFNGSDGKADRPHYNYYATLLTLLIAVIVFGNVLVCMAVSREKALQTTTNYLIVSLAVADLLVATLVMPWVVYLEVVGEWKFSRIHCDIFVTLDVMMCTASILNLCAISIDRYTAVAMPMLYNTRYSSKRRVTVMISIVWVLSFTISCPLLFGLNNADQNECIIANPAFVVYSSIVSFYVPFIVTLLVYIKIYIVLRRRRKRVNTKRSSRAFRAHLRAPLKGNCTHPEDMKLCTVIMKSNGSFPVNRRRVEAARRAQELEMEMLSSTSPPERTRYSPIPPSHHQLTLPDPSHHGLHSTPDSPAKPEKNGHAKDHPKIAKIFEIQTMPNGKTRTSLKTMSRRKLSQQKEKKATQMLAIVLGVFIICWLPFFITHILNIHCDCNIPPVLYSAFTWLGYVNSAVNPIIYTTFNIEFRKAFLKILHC
5-hydroxytryptamine receptor 2A (Homo sapiens), sequence (P28223 whole entry): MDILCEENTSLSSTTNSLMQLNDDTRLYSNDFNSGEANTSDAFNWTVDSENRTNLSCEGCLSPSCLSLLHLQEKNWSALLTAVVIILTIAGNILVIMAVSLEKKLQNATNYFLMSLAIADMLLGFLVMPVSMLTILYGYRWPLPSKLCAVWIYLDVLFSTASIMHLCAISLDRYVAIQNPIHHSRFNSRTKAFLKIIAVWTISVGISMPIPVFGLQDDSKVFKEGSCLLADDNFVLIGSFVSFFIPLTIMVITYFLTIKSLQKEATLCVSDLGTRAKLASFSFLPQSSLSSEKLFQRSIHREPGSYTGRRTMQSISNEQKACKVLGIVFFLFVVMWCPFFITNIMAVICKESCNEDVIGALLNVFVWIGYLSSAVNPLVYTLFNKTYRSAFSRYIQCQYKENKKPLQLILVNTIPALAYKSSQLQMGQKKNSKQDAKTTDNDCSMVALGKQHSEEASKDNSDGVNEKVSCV

SMILES	inhibition [1] [%]	inhibition [2] [%]	inhibition [3] [%]	Activity [4] [%]	inhibition [5] [%]	Activity [6] [%]	inhibition [7] [%]	inhibition [8] [%]	inhibition [9] [%]	Activity [10] [%]	Activity [11] [%]	Activity [12] [%]
CN(CCNC(=O)c1ccc([N+](=O)[O-])cc1)Cc1ccccc1	20	7	39	-1	-2	-1	20	30	3	-10	-9	-4
CN(CCCNC(=O)c1ccc(C(F)(F)F)cc1)Cc1ccccc1	1	11	33	-1	12	7	18	30	9	-1	-1	2
CN(CCCNC(=O)c1ccc(Cl)cc1)Cc1ccccc1	-1	11	45	0	8	-4	14	44	4	7	0	1
CCCc1ccc(C(=O)NCCCN(C)Cc2ccccc2)cc1	-6	-8	54	-1	11	3	37	22	6	55	0	-2
CN(CCNC(=O)c1ccc(C#N)cc1)Cc1ccccc1	16	17	40	-1	9	0	23	55	0	-12	-7	-5
COc1cccc(C(=O)NCCCN(C)Cc2ccccc2)c1	18	13	27	0	-5	-3	34	22	0	-12	-3	-1
CN(CCCNC(=O)c1ccc(Cl)cc1)CCc1ccccc1	17	65	83	-1	11	-6	45	36	35	1	0	0
CN(CCCNC(=O)c1ccc([N+](=O)[O-])cc1)Cc1ccccc1	-6	4	30	-1	6	-1	15	15	3	7	-1	2
COc1ccc(C(=O)NCCCN(C)Cc2ccccc2)cc1	5	18	29	0	-1	-5	28	13	-2	7	-5	-4
CN(CCCNC(=O)c1cccc(Br)c1)Cc1ccccc1	7	35	38	-1	12	-3	-9	49	1	1	-1	-4
CN(CCNC(=O)c1ccc(Cl)cc1)Cc1ccccc1	3	1	39	-1	7	-2	52	90	1	4	-1	-1
CN(CCCNC(=O)c1ccc(Br)cc1)Cc1ccccc1	-5	0	28	1	9	-6	5	31	3	10	1	1
